Article PMC6099493, “Discovery of Matrinic Thiadiazole Derivatives as a Novel Family of Anti-Liver Fibrosis Agents via Repression of the TGFβ/Smad Pathway” (Molecules : A Journal of Synthetic Chemistry and Natural …, 2018)
Counter-ions that a name gives are not always drawn.

Tests used:
[1] = tested on: COL1A1 promotor; experiment: COL1A1 promotor single luciferase reporter gene model in LX-2 (LX2-COL) cells; type: cell-based, human; conditions: Homo sapiens, LX-2 cells treated simultaneously with TGFβ1 and compound, read-out: Inhibition Percentage (inhibition rate of COL1A1 promotor's activity in LX2 cells)
[2] = MTT cytotoxicity / cell survival assay; type: cell-based; conditions: human, HepG2 cells, read-out: CC50 (cytotoxic concentration required to inhibit HepG2 cell growth by 50%)
Description: (§1) A single luciferase reporter gene detection model was applied to screen the inhibitory effects towards COL1A1 promotor of all target compounds in human hepatic stellate LX-2 cells at the concentration of 40 μM, taking EGCG and compound 1 as the positive controls. The LX2-COL monoclone cell line was treated simultaneously with TGFβ1 and a target compound [13]. The cytotoxicity was determined using MTT assay in HepG2 cells.
(§2) The cell survival was evaluated by MTT assay. HepG2 cells were seeded at density of 6 × 10^3 cells/well in 96-well plate. Cells were treated with various concentrations of matrinic derivate until the cells at 50% confluence. After 24 h of incubation, 20 µL of the MTT (5 mg/mL) solution was added into each plate and incubated for 4 h at 37 °C, 5% CO2. Subsequently, the culture supernatant was replaced with 150 µL DMSO to dissolve the formazan crystal. The absorbance at 570 nm was measured using a microplate reader (ELx800, BioTek Instruments, Winooski, VT, USA).

[3] = tested on: HepG2 cells; experiment: MTT cytotoxicity / cell survival assay; type: cell-based; conditions: read-out: CC50 (cytotoxic concentration required to inhibit HepG2 cell growth by 50%)
Description: as §1, §2

[4] = tested on: COL1A1 protein; experiment: COL1A1 protein level by western blot in LX-2 cells; type: cell-based; conditions: Homo sapiens, TGFβ1 2 ng/mL, read-out: COL1A1 protein level inhibition rate
Description: (§3) Next, compounds 6i, 6l and 6n were chosen as the key compounds to verify their inhibitory effects against COL1A1. LX-2 cells were stimulated with TGFβ1 (2 ng/mL), and then treated with compounds 6i, 6l and 6n (80 μM) respectively, taking 1 as the control. Their anti-COL1A1 effects were evaluated on RNA level by real-time PCR amplification. […] Then their anti-COL1A1 effects were investigated on the protein level by western blot assays.
(§4) LX-2 cells were cultured as described above. Briefly, cells were washed with phosphate-buffered saline (PBS) and were lysed in radioimmunoprecipitation assay (RIPA) lysis for 30 min in 4 °C; the supernatant was collected after centrifugation at 12,000× g, 4 °C for 15 min. Equal amounts of protein were quantified with Bradford assay, separated by SDS-PAGE and transferred to polyvinylidene difluoride membrane. The membranes were blocked for one hour at room temperature in PBST containing 5% milk and probed with specific first antibodies overnight at room temperature. Membrane was washed 3 times by PBST, followed by horseradish peroxidase-conjugated secondary antibodies and GAPDH. The proteins were visualized using chemiluminescence reagents.

[5] = tested on: α-SMA protein; experiment: α-SMA protein level by western blot in LX-2 cells; type: cell-based; conditions: Homo sapiens, TGFβ1 2 ng/mL, read-out: α-SMA protein level inhibition rate
Description: (§5) α-SMA is a more commonly recognized indicator for liver fibrosis, and it could be induced by a stimulation of TGFβ1 [22], therefore, the amounts of α-SMA were also evaluated.
as §4

[6] = tested on: α-SMA mRNA; experiment: α-SMA mRNA level by real-time PCR in TGFβ1-stimulated LX-2 cells; type: cell-based, human; conditions: 80 μM, TGFβ1 2 ng/mL
Description: as §5
(§6) LX-2 cells were seeded in 6-well plate, cultured in DMEM, containing 10% fetal bovine serum (FBS) in a 5% CO2 atmosphere at 37 °C. And serum-free culture was required until the cells at 90–95% confluence. After 24 h, cells were treated with TGFβ1 (2 ng/mL) and matrinic derivatives (80 μM) for 24 h. Total RNA from the LX-2 cells was extracted using Trizol reagent, purified by NucleoSpin RNA Clean-up. Reverse transcription was performed with a Transcriptor first strand cDNA synthesis kit. The cDNA was then analysis by ABI 7500 Fast Real-Time PCR System (ThermoFisher Scientific, Singapore) using TaqMan probes of TGFβ1, COL1A1, α-SMA, and GAPDH (sequence reserved by ABI, Foster City, CA ,USA) and FastStart Universal Probe master mix (Roche, Indianapolis, IN, USA).

[7] = tested on: COL1A1 mRNA; experiment: COL1A1 mRNA level by real-time PCR in TGFβ1-stimulated LX-2 cells; type: cell-based, human; conditions: 80 μM, TGFβ1 2 ng/mL
Description: as §3, §6

[8] = tested on: Smad2 / phosphorylated Smad2 (TGFβ/Smad pathway); experiment: Smad2 and p-Smad2 levels by western blot in LX-2 cells; type: cell-based, human
Description: Considering the key role of TGFβ/Smad pathway in activating COL1A1, the effects of the three compounds on Smad and phosphorylated Smad were then evaluated.
as §4

[9] = tested on: Kunming mice; conditions: female, mouse, in vivo, po, 7 days
Description: To evaluate the safety profile of 6n, an acute toxicity test was performed in Kunming mice. Compound 6n was given orally in a single-dosing experiment at 125, 250 or 500 mg·kg^−1, respectively. The mice were closely monitored for 7 days. To our delight, it gave the median lethal dose (LD50) value over 500 mg·kg^−1, indicating a good safety profile in vivo.
Female Kunming mice with weight of 20.0 (±1.0 g) were obtained from the Institute of Laboratory Animal Science (Beijing, China). Animals were cared according to the institutional guidelines of the Institute of Materia Medica, CAMS&PUMC (00000364). The mice were fed with regular rodent chow and housed in an air conditioned room. The mice were randomly divided into different groups with 6 mice each. Each compound was given orally in a single-dosing experiment at 0, 250, 500, 750 or 1000 mg·kg^−1 (ddH2O as control), respectively. The mice were closely monitored for 7 days. Body weight as well as survival was monitored.

Row | melting point [°C] | Compound | inhibition at 40 µM [1] [%] | CC50 at 24 h [2] [µM] | CC50 [3] [µM] | inhibition at 80 µM [4] [%] | inhibition at 80 µM [5] [%] | α-SMA mRNA level inhibitory rate [6] [%] | COL1A1 mRNA level inhibitory rate [7] [%] | Effect on Smad level [8] | Effect on phosphorylation level of Smad2 (in words) [8] | median lethal dose (LD50) [9] | Inhibition rate of Smad2 phosphorylation level [8] [%]
1 |  | Cc1ccc(S(=O)(=O)N2CC3CCCN4CCCC(C34)C2CCCc2nnc(Nc3ccccc3)s2)cc1 (stereo not shown) [Compound 6e, 12-N-p-Methylbenzenesulfonyl-3′-(N-phenyl-5-amino-1,3,4-thiadiazol-2-yl)-matrinic propane] | 69 | > 82.6 | 82.5 |  |  |  |  |  |  |  | 
2 | 170 to 171 | Nc1nnc(CCCC2C3CCCN4CCCC(CN2Cc2ccccc2)C34)s1 (stereo not shown) [Compound 6i, 12-N-Benzyl-3′-(5-amino-1,3,4-thiadiazol-2-yl)-matrinic propane] | 47.8 | > 320 |  | 65 | 64.9 | 75.1 | 46.1 | did not affect the Smad level | repressed the phosphorylation level of Smad2 significantly |  | 
3 |  | Cc1ccc(CN2CC3CCCN4CCCC(C2CCCc2nnc(N(C)C)s2)C34)cc1 (stereo not shown) [Compound 6n, 12-N-p-Methylbenzyl-3′-(N,N-dimethyl-5-amino-1,3,4-thiadiazol-2-yl)-matrinic propane hydrochloride] | 39.7 | > 320 |  | 47.6 | 104 | 87.6 | 78.4 | did not affect the Smad level | repressed the phosphorylation level of Smad2 significantly | over 500 mg·kg^−1 | 49.8
